Starred links: 1 amine or outer side, 2 acyl side, 3 side chain; linkers in the order of their positions; H or OH if unused. Non-standard residues stand in square brackets, D forms with d. Residues, ends and D or L forms follow the SMILES beside them. LeuΨ(S-CHOHCH2)Ala = CC(C)C[C@H](N[*:1])[C@@H](O)C[C@@H](C)C(=O)[*:2]; X1 = CC(C)C[C@H](N[*:1])[C@@H](O)[C@@H]1CCC[C@H]1C(=O)[*:2]
What was measured:
Beta-secretase 1 [1] = biological target: T1, Beta-secretase 1 (Homo sapiens, UniProt P56817); test: Inhibitory concentration against human Membrane-associated aspartic protease 2
T1 sequence (P56817 whole entry): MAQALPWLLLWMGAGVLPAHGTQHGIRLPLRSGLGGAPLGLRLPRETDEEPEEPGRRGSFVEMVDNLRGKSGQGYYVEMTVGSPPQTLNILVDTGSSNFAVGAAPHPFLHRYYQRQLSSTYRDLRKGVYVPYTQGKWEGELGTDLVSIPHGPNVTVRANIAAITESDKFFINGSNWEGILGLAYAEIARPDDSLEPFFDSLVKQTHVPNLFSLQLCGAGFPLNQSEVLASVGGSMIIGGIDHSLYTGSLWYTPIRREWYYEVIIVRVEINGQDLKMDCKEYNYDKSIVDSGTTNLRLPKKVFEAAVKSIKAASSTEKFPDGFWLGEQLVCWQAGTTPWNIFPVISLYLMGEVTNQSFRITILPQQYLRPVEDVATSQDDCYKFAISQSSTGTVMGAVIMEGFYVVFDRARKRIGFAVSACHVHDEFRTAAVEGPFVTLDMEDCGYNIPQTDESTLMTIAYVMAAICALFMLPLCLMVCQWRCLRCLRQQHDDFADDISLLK

Cathepsin D [2] = biological target: T2, Cathepsin D (Homo sapiens, UniProt P07339); test: Inhibitory concentration against human Cathepsin D
T2 sequence (P07339 65-162 limits assumed): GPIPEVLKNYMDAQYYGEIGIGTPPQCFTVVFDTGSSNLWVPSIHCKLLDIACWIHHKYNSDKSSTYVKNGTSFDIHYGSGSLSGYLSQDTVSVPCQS
T2 sequence (P07339 169-412 limits assumed): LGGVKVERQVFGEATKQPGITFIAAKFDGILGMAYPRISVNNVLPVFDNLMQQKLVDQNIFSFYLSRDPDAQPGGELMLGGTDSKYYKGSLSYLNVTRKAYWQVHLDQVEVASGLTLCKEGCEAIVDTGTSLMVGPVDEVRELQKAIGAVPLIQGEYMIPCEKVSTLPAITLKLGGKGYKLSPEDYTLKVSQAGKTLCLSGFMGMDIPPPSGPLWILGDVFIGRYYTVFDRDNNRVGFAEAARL

Cathepsin D [3] = biological target: T2, Cathepsin D; test: Inhibitory activity against human Cathepsin D at 0.01 uM
Beta-secretase 1 [4] = biological target: T1, Beta-secretase 1; test: Inhibitory activity against human beta-site APP-cleaving enzyme 1 at 0.01 uM

Row | IC50 (Beta-secretase 1 [1]) [nM] | IC50 (Cathepsin D [2]) [nM] | inhibition (Cathepsin D [3]) [%] | inhibition (Beta-secretase 1 [4]) [%] | Structure (SMILES)
1 | 12 | 98 |  |  | CC(C)C[C@H](NC(=O)[C@H](CC(N)=O)NC(=O)[C@@H](NC(=O)[C@@H](N)CCC(=O)O)C(C)C)[C@@H](O)C[C@@H](C)C(=O)N[C@@H](C)C(=O)O (H-EVN[LeuΨ(S-CHOHCH2)Ala]A-OH)
2 | 25 | < 10 | 100 |  | CCCCNC(=O)[C@@H](NC(=O)[C@@H]1CCC[C@H]1[C@H](O)[C@H](CC(C)C)NC(=O)[C@H](CCSC)NC(=O)[C@H](CC(C)C)NC(C)=O)C(C)C
3 |  | 6 |  |  | CC(C)C[C@H](NC(=O)[C@H](CC(N)=O)NC(=O)[C@@H](NC(=O)[C@@H](N)CCC(=O)O)C(C)C)[C@@H](O)C[C@@H](C)C(=O)N[C@@H](C)C(=O)N[C@@H](CCC(=O)O)C(=O)N[C@@H](Cc1ccccc1)C(=O)O (H-EVN[LeuΨ(S-CHOHCH2)Ala]AEF-OH)
4 |  | 6000 |  |  | CC(C)C[C@H](NC(=O)[C@H](CC(N)=O)NC(=O)[C@@H](NC(=O)[C@@H](N)CCC(=O)O)C(C)C)[C@@H](O)[C@@H]1CCC[C@H]1C(=O)N[C@@H](C)C(=O)O (H-EVN[X1]A-OH)
5 | 9560 | 280 |  |  | CCCCNC(=O)[C@@H](NC(=O)[C@@H]1OCC[C@H]1[C@H](O)[C@H](CC(C)C)NC(=O)[C@H](CCSC)NC(=O)[C@H](CC(C)C)NC(C)=O)C(C)C
6 | 190 | 25 |  |  | CSCC[C@H](NC(=O)[C@H](CC(C)C)NC(C)=O)C(=O)N[C@@H](CC(C)C)[C@@H](O)[C@@H]1CCC[C@H]1C(=O)N[C@H](C(=O)O)C(C)C
7 | < 10 | 70 |  | 79 | CCCCNC(=O)[C@@H](NC(=O)[C@H]1[C@H]([C@H](O)[C@H](CC(C)C)NC(=O)[C@H](CCSC)NC(=O)[C@H](CC(C)C)NC(C)=O)CC(=O)N1C)C(C)C
8 | 185 | < 10 | 95 |  | CCCCNC(=O)[C@H](C)NC(=O)[C@@H]1CCC[C@H]1[C@H](O)[C@H](CC(C)C)NC(=O)[C@H](CCSC)NC(=O)[C@H](CC(C)C)NC(C)=O
9 | 1820 | 60 |  |  | CCCCNC(=O)[C@@H]1CCC[C@H]1[C@H](O)[C@H](CC(C)C)NC(=O)[C@H](CCSC)NC(=O)[C@H](CC(C)C)NC(C)=O
10 | 3440 | 1230 |  |  | CCCCNC(=O)[C@@H](NC(=O)[C@@H]1CN(C)C[C@H]1[C@H](O)[C@H](CC(C)C)NC(=O)[C@H](CCSC)NC(=O)[C@H](CC(C)C)NC(C)=O)C(C)C
11 | 3350 | 130 |  |  | CCCCNC(=O)[C@@H](NC(=O)[C@@H]1C(=O)N(CC)C[C@H]1[C@H](O)[C@H](CC(C)C)NC(=O)[C@H](CCSC)NC(=O)[C@H](CC(C)C)NC(C)=O)C(C)C
12 | 40 | 60 |  |  | CC(C)C[C@H](NC(=O)[C@H](CC(N)=O)NC(=O)[C@@H](NC(=O)[C@@H](N)CCC(=O)O)C(C)C)[C@@H](O)[C@@H]1CCC[C@H]1C(=O)N[C@@H](C)C(=O)N[C@@H](CCC(=O)O)C(=O)O (H-EVN[X1]AE-OH)
13 | 16 | < 10 | 90 |  | CC(C)C[C@H](NC(=O)[C@H](CC(N)=O)NC(=O)[C@@H](NC(=O)[C@@H](N)CCC(=O)O)C(C)C)[C@@H](O)[C@@H]1CCC[C@H]1C(=O)N[C@@H](C)C(=O)N[C@@H](CCC(=O)O)C(=O)N[C@@H](Cc1ccccc1)C(=O)O [CARBOCYCLIC PEPTIDOMIMETIC] (H-EVN[X1]AEF-OH)
14 | 720 | 1500 |  |  | CSCC[C@H](NC(=O)[C@H](CC(C)C)NC(C)=O)C(=O)N[C@@H](CC(C)C)[C@@H](O)[C@@H]1CC(=O)C[C@H]1C(=O)N[C@@H](C)C(=O)O
15 |  | 56 |  |  | CCCCNC(=O)[C@@H](NC(=O)[C@@H]1CC(=O)C[C@H]1[C@H](O)[C@H](CC(C)C)NC(=O)[C@H](CCSC)NC(=O)[C@H](CC(C)C)NC(C)=O)C(C)C
16 | > 10000 | 430 |  |  | C=C1C[C@@H]([C@H](O)[C@H](CC(C)C)NC(=O)[C@H](CCSC)NC(=O)[C@H](CC(C)C)NC(C)=O)[C@H](C(=O)N[C@@H](C)C(=O)O)C1

Row | Structure (SMILES) | IC50 (Beta-secretase 1 [1]) [nM] | IC50 (Cathepsin D [2]) [nM] | inhibition (Cathepsin D [3]) [%] | inhibition (Beta-secretase 1 [4]) [%]
17 | CSCC[C@H](NC(=O)[C@H](CC(C)C)NC(C)=O)C(=O)N[C@@H](CC(C)C)[C@@H](O)[C@@H]1CCC[C@H]1C(=O)N[C@@H](C)C(=O)O | 60 | 90 |  | 

Source: ChEMBL document CHEMBL1145163, “Structure-based design, synthesis, and memapsin 2 (BACE) inhibitory activity of carbocyclic and heterocyclic peptidomimetics” (J Med Chem, 2005)
